Test results: PMC12311729, “Probing the Mechanism of L‑DOPA 2,3-Dioxygenase Using Synthetic Derivatives of 3,4-Dihydroxyhydrocinnamic Acid” (ACS Omega, 2025)

What was measured:
O=C(O)CCc1ccc(O)c(O)c1 = assay: UV-visible steady-state assay of L-DOPA 2,3-dioxygenase (ShjDDO); assay type: biochemical, Streptomyces hygroscopicus jingganensis; conditions: other: S. hygroscopicus jingganensis enzyme
Procedure: (§1) Purified, reconstituted L-DOPA 2,3-dioxygenases were assessed for activity by monitoring the cleavage of catecholic substrates using UV–visible spectroscopy. 3,4-Dihydroxyhydrocinnamic acid (DHHCA, 3) was purchased from Sigma-Aldrich. 6-CyanoDHHCA (5) and 6-bromoDHHCA (4) were synthesized as described above.
(§2) Molecular oxygen (AirGas) was bubbled directly into the reaction buffer through a glass-bonded silica gas diffuser (Bubblemac Industries, Inc.) or as a gas mixture blended with air (AirGas). Solutions were bubbled with oxygen for several minutes prior to use and for the duration of the experiment. To determine the K M for oxygen (i.e., K MO2), L-DOPA 2,3-dioxygenases (0.25–4.0 μM) were reacted with a saturating concentration of the catecholic substrate DHHCA/6-X-DHHCA derivatives (2–10× the K M sufficient to achieve k cat) and various oxygen concentrations (21–100% or 270–1300 μM at 22 °C). The concentration of oxygen was varied by changing the percentage of oxygen in the blend using a galvanic oxygen sensor and oxygen monitor (AirGas) and then bubbling solutions, as described above. Molecular oxygen percentages were converted to molar concentrations using a reference temperature of 22 °C. The reaction of L-DOPA 2,3-dioxygenases with DHHCA/6-X-DHHCA derivatives as a function of oxygen concentration was followed by the appearance of the steady-state cleavage product by using UV–visible spectroscopy.
(§3) The extinction coefficients for steady-state cleavage products of DHHCA and synthetic 6-X-DHHCA derivatives were determined by reacting various concentrations of DHHCA/6-X-DHHCA derivatives at 22 °C with a 10-fold stoichiometric excess of enzyme (quantified by Fe^II–see Reconstitution) in 50 mM HEPES buffer with 154 mM NaCl at pH 7.5, bubbled with 100% oxygen to a final concentration of 780–910 μM, depending on the volume of oxygenated buffer that comprised the reaction (60–70%). Substrate solutions were prepared from authentic synthetic standards using an analytical balance, and reactions were run to completion as assessed by the appearance of the steady-state product. The λmax and extinction coefficients of DHHCA, 6-cyanoDHHCA, and 6-bromoDHHCA were determined herein as ε380 = 40 740 ± 820 M^–1cm^–1, ε385 = 33 256 ± 484 M^–1cm^–1, and ε380 = 35 282 ± 1190 M^–1cm^–1, respectively (Figure S52).
(§4) Steady-state kinetic data were obtained through a UV–visible spectroscopic assay. Initial rates were obtained from the slopes of the linear regions of the progress curves and plotted versus substrate concentration to yield a hyperbola, which was analyzed using the Michaelis–Menten expression and nonlinear least-squares fitting (NLSF) with Origin 6.0 (Microcal). Two possible derivations of the Michaelis–Menten expression were used: 1) the traditional expression y = k cat × x/(K M + x), where y is Rate/E 0 or the rate of product formation (μM/min) divided by the starting enzyme concentration (μM), x is substrate concentration (μM) and k SP (also known as k cat × K M ^–1)–that is, the second-order rate constant of enzyme and substrate–is extracted from the fitted constants; or 2) the alternative derivation that extracts k SP and k cat directly from the fit: y = (k SP × x)/((1 + k SP × x)/k cat), and where y is Rate/E 0 or the rate of product formation (μM/min) divided by the starting enzyme concentration (μM), x is substrate concentration (μM), k SP is equivalent to k cat×K M ^–1, and K M is extracted from k cat/k cat×K M ^–1.

[1] = system: N#Cc1cc(O)c(O)cc1CCC(=O)O; assay: as above; assay type: biochemical, Streptomyces hygroscopicus jingganensis; conditions: other: S. hygroscopicus jingganensis enzyme
Procedure: as §1, §2, §3, §4

O=C(O)CCc1cc(O)c(O)cc1Br = assay: as above; assay type: biochemical, Streptomyces hygroscopicus jingganensis; conditions: other: S. hygroscopicus jingganensis enzyme
Procedure: as §1, §2, §3, §4

[2] = parameters: method as in Biochemistry 2021, 60, 32, 2492–2507; conditions: percentage of L-DOPA; ref Biochemistry 2021, 60, 32, 2492–2507; cited from earlier work
[3] = Cyclic voltammetry (redox potentials on a GCE); assay type: physicochemical; conditions: GCE (d = 2 mm)
From the text: Reduction and oxidation potentials were experimentally performed by cyclic voltammetry (CV) at biological pH 7.4, as previously described. All samples were run on a CH Instruments 600E Potentiostat in a one-compartment cell equipped with a three-electrode system arrangement. The three-electrode system included a saturated calomel electrode as the reference electrode, a platinum wire as the auxiliary electrode, and a glassy carbon electrode (GCE, d = 2 mm) as the working electrode. The GCE was polished between each sample scan with an aqueous slurry of alumina powder on a microcloth pad. The electrodes were rinsed with distilled water prior to the next scan. All scans were conducted under nitrogen for oxygen displacement and at room temperature (rt, 25 ± 1 °C). All samples were prepared as close to the scan as possible (approximately 2 min each). Each sample (5 mL) contained 0.1 mM catecholic substrate and 1 μM DMSO in 0.1 M phosphate buffer at a pH of 7.4 or 6.0. […] The cyclic voltammograms for the compounds at both pH 6.0 and 7.4 are available in Figures S40–S51.

[4] = parameters: method as in Biochemistry 2021, 60, 32, 2492–2507; conditions: percentage of L-DOPA; ref Biochemistry 2021, 60, 32, 2492–2507; cited from earlier work; remark: listed apart in the source
[5] = target: L-DOPA 2,3-dioxygenase from S. lincolnensis (LmbB1) (Streptomyces lincolnensis, UniProt Q54354); parameters: method as in Biochemistry 2021, 60, 32, 2492–2507; conditions: percentage of L-DOPA; ref Biochemistry 2021, 60, 32, 2492–2507; cited from earlier work
[6] = Determination of pKa values by spectrophotometric titration; conditions: first catecholic deprotonation; determined spectroscopically from pH 3 to 12.5
Procedure: A buffer system utilizing five different buffers was prepared to cover the pH range of 3.0 to 12.50. A Thermo Scientific Orion Star A211 pH meter was used to measure and determine the pH of each buffer. The pH meter was calibrated using three- and four-point calibration with pH values of 4.00, 7.01, and 10.01 and 4.00, 7.01, 10.01, and 12.00, respectively.
The buffer systems were prepared as previously described and included: NaOAc/HOAc buffers (C = 0.1 M; I = 0.1 M) were used to cover the pH range of 3.0 to 5.50. KH2PO4/K2HPO4 buffers (C = 0.05 M; I = 0.1 M) were used to cover the pH range of 6.00 to 8.00. CHES buffers (C = 0.05 M; I = 0.1 M) were used to cover the pH range of 8.50 to 10.50. Na2HPO4/Na3PO4 buffers (C = 0.05 M; I = 0.1 M) were used to cover the pH range of 11.00 to 12.00. KCl buffers (C = 0.1 M; I = 0.1 M) were used to cover the pH range of 12.00 to 12.50.
The absorbance spectra of the compounds were determined at each pH as previously described. Briefly, a stock solution was prepared for each compound by weighing 2 mg of the compound using a high-precision analytical balance. Each compound was then dissolved in DMSO at a concentration of 10 mM. A UV-transparent 96-well microplate (Corning clear acrylic 96-well UV plate with a UV-transparent flat bottom) was loaded with 196 μL of buffer solution and 4 μL of the catechol stock in each well to get a final concentration of 200 μM. DMSO (4 μL) was added to 196 μL of the appropriate buffer to produce a blank solution for each buffer.
The 96-well plate was loaded into the microplate reader and incubated at 30 °C and shaken for 10 min before the reading. Absorbance readings were completed by using a Synergy HTX 15032517 microplate reader. Each well was read at wavelengths from 210 to 600 nm with 2-nm increments for each scan over a duration of 60 min.
The data were analyzed as previously described. Raw UV-spectra scans were exported to the Excel program. They were first processed by subtracting the reading of the blank solutions from the reading of each compound at the corresponding wavelengths. […] Finally, the spectral difference between the pH 3.0 buffer and the spectra at all other pH values was plotted. Additionally, the spectral difference between the pH 4.0 buffer and the spectra at all other higher pH values was plotted. The wavelengths for the maximum positive and negative absorbance were determined by using the graphs of the spectral difference plots, both for the pH 3.0 and pH 4.0 spectral difference plots. The absolute maximum positive and total absorbance differences at these chosen wavelengths were plotted against the pH of each buffer. The data were imported into the Origin 6.0 program, and the pK a values were determined with a nonlinear regression using eq : 1 Absorbancetotal=εHA−εA−[10^(pH−pKa)]/1+10^(pH−pKa)×[St]
εHA is the extinction coefficients of the acid form of the compound, and εA ^– is the extinction coefficient of the base form of the compound (i.e., the minima and maxima of the absorbance difference curve, respectively), and [S t] is the total compound concentration.

[7] = parameters: method as in Biochemistry 2021, 60, 32, 2492–2507; conditions: percentage of L-DOPA; ref Biochemistry 2021, 60, 32, 2492–2507; cited from earlier work; remark: listed apart in the source
[8] = saturating catecholic substrate, 22 °C, pH 7.5

Sequence of L-DOPA 2,3-dioxygenase from S. lincolnensis (LmbB1) (Q54354 entry or part of it): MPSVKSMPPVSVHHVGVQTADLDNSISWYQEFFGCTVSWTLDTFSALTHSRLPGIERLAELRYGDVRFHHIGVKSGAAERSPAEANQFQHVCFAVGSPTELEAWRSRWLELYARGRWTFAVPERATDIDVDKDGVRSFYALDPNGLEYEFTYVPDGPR

Compound: L-DOPA 2,3-dioxygenase from S. hygroscopicus jingganensis (ShjDDO) (Streptomyces hygroscopicus subsp. jinggangensis 5008)
- Km (O=C(O)CCc1ccc(O)c(O)c1; pH 7.5, 22 °C): 422 ± 94 µM
- Km (O=C(O)CCc1ccc(O)c(O)c1; [8]): 1059 ± 246 µM
- Km ([1]; pH 7.5, 22 °C): 228 ± 53 µM
- Km [1, 8]: 1019 ± 236 µM
- Km (O=C(O)CCc1cc(O)c(O)cc1Br; pH 7.5, 22 °C): 926 ± 169 µM
- Km (O=C(O)CCc1cc(O)c(O)cc1Br; [8]): 759 ± 66 µM

Compound: NCCc1ccc(O)c(O)c1 [Dopamine (DA, 2), dopamine]
- CSEV (Å^3) relative to L-DOPA x 100 [2]: 84%
- (E p)a Oxidation ([3]; pH 6.0): 354 mV
- (E p)c Reduction ([3]; pH 6.0): 84 mV
- E1/2 ([3]; pH 6.0): 219 mV
- Ipa/Ipc ([3]; pH 6.0): 2.89
- ΔE p ([3]; pH 6.0): 270 mV
- (E p)a Oxidation ([3]; pH 7.4): 178 mV
- (E p)c Reduction ([3]; pH 7.4): 54 mV
- E1/2 ([3]; pH 7.4): 116 mV
- Ipa/Ipc ([3]; pH 7.4): 1.32
- ΔE p ([3]; pH 7.4): 124 mV
- Catecholic pKa value relative to L-DOPA x 100 [4]: 102%
- kSP, O2 (μM^-1 min^-1) at pH 7.5 relative to L-DOPA x 100 for LmbB1 [5]: 6%
- pK a value [6]: 8.99 ± 0.05
- E1/2 (mV) at pH 7.4 relative to L-DOPA x 100 [7]: 58%
